Patent US6528245B2, “Bone marrow cells as a source of neurons for brain and spinal cord repair” (University of South Florida, priority 1998, dated 2003)

How the values were obtained:
MSCs = settings: 1 μg/ml, alone; cited from earlier work
human BMSC = test: In vitro differentiation of human BMSC; immunocytochemistry and Western blot; assay type: cell-based; settings: replated in medium containing the mitogen
Description: To briefly summarize, BMSC were separated from whole bone marrow of the mouse, calf and humans.
BMSC were isolated from residual bone marrow material (bone chips with adherent stromal cells, fatty tissue and debris) which was retained on the nylon mesh filters routinely used in filtering freshly procured human marrow to be used for bone marrow transplantation. The filtrate contains the bulk of the bone marrow hematopoietic elements that is then processed for human bone marrow replacement. We use the filters that were usually discarded. The filters were back washed five times with PBS. The PBS solution was centrifuged to deposit the heavier bone chips. The supernatant was resuspended in culture medium and plated in tissue culture flasks (as in Example 1). BMSC were separated by their adherence to plastic culture flasks, whereas the smaller hematopoietic stem cells remained suspended in the media and were removed when the culture media was replaced with fresh media. […]
After 7 days, expressions of neuronal markers (Nestin, Neuron Specific Nuclear protein or NeuN and GFAP) and a bone marrow stromal cell marker (fibronectin) were analyzed by Western blot analysis and immunocytochemistry (FIG. 6). […]

| Compound | differentiation of MSCs into myoblasts and myotubes (MSCs) | proliferation and differentiation of human bone marrow cells (human BMSC) |
| --- | --- | --- |
| C[C@@H]1[C@H](O)[C@@H](C)/C=C/C=C/C=C/C=C/C=C/C=C/C=C/[C@H](O[C@@H]2O[C@H](C)[C@@H](O)[C@H](N)[C@@H]2O)C[C@@H]2O[C@](O)(C[C@@H](O)C[C@@H](O)[C@H](O)CC[C@@H](O)C[C@@H](O)CC(=O)O[C@H]1C)C[C@H](O)[C@H]2C(=O)O [amphotericin B] | differentiate into myoblasts and myotubes | – |
| EGF: epidermal growth factor, mitogen used at 10 ng/ml (NSDSECPLSHDGYCLHDGVCMYIEALDKYACNCVVGYIGERCQYRDLKWWELR; Epidermal growth factor; UniProt P01133 971-1023, looked up) | – | proliferation of cells, without significant induction of differentiation |
